This note sets out measurements from paper PMC12246642 (iScience, 2025).

The target in experiment [1] is T1, SARS-CoV-2 Mpro (Severe acute respiratory syndrome coronavirus 2, UniProt P0DTD1). As to the kind of experiment: biochemical. The experiment is classed as biochemical. Conditions: aldehyde hydration penalty taken into account.
Experiment [2] deals with T1, SARS-CoV-2 Mpro. Nature of the experiment: Covalent bond (adduct) formation kinetics by IR-MALDESI intact protein MS. The experiment is classed as binding. Conditions: for covalent complex formation in the titration of compound versus Mpro: up to 5-fold molar excess of compound, unquenched condition for compound 5.
Experiment [3] addresses His tag SARS-CoV-2 3CLpro (1-306) F305A, Q306A (Severe acute respiratory syndrome coronavirus 2, UniProt P0DTD1, F3568A/Q3569A). The experiment is classed as binding.

Each structure is given as a SMILES string. A value given as a limit tells only on which side of the number the result lay.

As for `COc1cccc2[nH]c(C(=O)N[C@@H](CC3CC3)C(=O)N[C@H](C=O)C[C@@H]3CCNC3=O)cc12` [Compound 1, N-((S)-3-cyclopropyl-1-oxo-1-(((S)-1-oxo-3-((S)-2-oxopyrrolidin-3-yl)propan-2-yl)amino)propan-2-yl)-4-methoxy-1H-indole-2-carboxamide], the “likely affinity accounting for the hydration penalty” value at SARS-CoV-2 Mpro [1] is approximately 10 pM. In addition, on SARS-CoV-2 Mpro [2], the “time for which covalent binding persists after chase (reversibility of adduct formation)” value is “at least 4 h” and the “covalent complex formation in the titration of compound versus Mpro” value was “did not reach saturation”.

`O=C[C@H](C[C@@H]1CCNC1=O)NC(=O)[C@H](CC1CC1)NC(=O)OCc1ccccc1` [Compound 2, benzyl ((S)-3-cyclopropyl-1-oxo-1-(((S)-1-oxo-3-((S)-2-oxopyrrolidin-3-yl)propan-2-yl)amino)propan-2-yl)carbamate]: the “likely affinity accounting for the hydration penalty” value on SARS-CoV-2 Mpro [1] is reported as approximately 10 pM.

In the case of `COc1cccc2[nH]c(C(=O)N[C@@H](CC3CC3)C(=O)N[C@H](C#N)C[C@@H]3CCNC3=O)cc12` [Compound 5, N-((S)-1-(((S)-1-cyano-2-((S)-2-oxopyrrolidin-3-yl)ethyl)amino)-3-cyclopropyl-1-oxopropan-2-yl)-4-methoxy-1H-indole-2-carboxamide], on SARS-CoV-2 Mpro [2], the “time for which covalent binding persists after chase (reversibility of adduct formation)” value is given as not above 1 h and the “covalent complex formation in the titration of compound versus Mpro” value was approximately 100%.

Consider `CS(=O)(=O)CC[C@@H](C#N)NC(=O)[C@H](CC1CC1)NC(=O)OCc1ccccc1` [Compound 8, benzyl ((S)-1-(((S)-1-cyano-3-(methylsulfonyl)propyl)amino)-3-cyclopropyl-1-oxopropan-2-yl)carbamate], for which, in experiment [3], the Kd entry was “No Activity” and the T1/2 result is listed as “No activity”.
